Test results as given in patent US10449181B2, “Treatment of autism and autism spectrum disorders (ASD)” (priority 2016, dated 2019).
Entries after “also recorded” stand apart in the source; their conditions may differ.

What was measured:
autistic children = details: eight week trial, 25 autistic children, unpublished data, not placebo-controlled; cited from earlier work
α2-GABAA receptors = α2-GABAA receptors (Homo sapiens, UniProt P18507+P47869); details: recombinant receptors; cited from earlier work
α2-GABAA receptors, sequence (P47869 29-451, one chain of several): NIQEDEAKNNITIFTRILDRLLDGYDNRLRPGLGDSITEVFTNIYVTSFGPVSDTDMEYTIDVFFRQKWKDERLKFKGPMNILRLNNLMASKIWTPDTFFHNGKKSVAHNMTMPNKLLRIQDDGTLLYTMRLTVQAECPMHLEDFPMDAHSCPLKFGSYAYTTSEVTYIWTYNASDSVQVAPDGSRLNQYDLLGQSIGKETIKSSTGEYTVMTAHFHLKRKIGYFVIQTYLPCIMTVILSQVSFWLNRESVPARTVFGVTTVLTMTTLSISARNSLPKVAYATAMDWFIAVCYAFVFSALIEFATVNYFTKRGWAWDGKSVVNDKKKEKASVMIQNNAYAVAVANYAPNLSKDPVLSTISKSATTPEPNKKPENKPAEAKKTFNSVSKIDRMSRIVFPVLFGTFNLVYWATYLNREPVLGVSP
α2-GABAA receptors, sequence (P18507 40-475, one chain of several): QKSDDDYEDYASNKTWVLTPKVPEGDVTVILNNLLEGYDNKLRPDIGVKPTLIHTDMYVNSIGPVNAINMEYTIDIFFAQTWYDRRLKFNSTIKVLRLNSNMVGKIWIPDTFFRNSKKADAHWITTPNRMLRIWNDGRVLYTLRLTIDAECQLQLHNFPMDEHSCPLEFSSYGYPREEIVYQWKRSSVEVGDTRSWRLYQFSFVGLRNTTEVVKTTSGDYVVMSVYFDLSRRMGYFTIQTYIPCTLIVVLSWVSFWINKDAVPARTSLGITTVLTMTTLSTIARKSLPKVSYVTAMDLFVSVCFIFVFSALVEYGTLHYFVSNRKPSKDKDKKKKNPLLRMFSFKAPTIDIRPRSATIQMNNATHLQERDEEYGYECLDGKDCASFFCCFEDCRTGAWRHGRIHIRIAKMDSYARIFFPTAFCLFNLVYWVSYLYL

α5-GABAA receptors = target: T1, α5-GABAA receptors (Homo sapiens, UniProt P31644); details: recombinant receptors; cited from earlier work
T1 sequence (P31644 32-462): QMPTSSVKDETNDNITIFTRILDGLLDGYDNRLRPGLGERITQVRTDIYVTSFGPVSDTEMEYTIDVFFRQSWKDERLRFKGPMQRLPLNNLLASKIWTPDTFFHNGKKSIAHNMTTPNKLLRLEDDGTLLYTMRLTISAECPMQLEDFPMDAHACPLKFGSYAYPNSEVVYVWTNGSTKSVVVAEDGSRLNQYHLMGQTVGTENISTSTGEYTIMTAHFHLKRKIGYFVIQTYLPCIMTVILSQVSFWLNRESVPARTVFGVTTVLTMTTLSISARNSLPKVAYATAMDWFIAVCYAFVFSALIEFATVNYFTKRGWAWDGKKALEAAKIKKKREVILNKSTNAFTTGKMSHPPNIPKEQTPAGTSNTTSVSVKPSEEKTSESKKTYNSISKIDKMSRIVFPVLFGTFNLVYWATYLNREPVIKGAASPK

α1β3 GABAA receptors = target: T2, α1β3 GABAA receptors (Homo sapiens, UniProt P14867); details: cited from earlier work
T2 sequence (P14867 28-456): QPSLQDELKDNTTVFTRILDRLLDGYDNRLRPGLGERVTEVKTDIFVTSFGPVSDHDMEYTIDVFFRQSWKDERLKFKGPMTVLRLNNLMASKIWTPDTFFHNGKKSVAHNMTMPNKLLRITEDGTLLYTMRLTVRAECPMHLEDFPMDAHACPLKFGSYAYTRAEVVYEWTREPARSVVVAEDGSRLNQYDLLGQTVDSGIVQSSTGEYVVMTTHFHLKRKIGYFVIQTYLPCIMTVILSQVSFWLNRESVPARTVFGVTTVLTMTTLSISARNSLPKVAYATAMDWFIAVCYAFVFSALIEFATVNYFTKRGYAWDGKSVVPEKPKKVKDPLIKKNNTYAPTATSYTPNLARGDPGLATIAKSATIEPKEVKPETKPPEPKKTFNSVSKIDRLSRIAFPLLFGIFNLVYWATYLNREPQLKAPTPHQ
T2 sequence (P28472 26-473 partner): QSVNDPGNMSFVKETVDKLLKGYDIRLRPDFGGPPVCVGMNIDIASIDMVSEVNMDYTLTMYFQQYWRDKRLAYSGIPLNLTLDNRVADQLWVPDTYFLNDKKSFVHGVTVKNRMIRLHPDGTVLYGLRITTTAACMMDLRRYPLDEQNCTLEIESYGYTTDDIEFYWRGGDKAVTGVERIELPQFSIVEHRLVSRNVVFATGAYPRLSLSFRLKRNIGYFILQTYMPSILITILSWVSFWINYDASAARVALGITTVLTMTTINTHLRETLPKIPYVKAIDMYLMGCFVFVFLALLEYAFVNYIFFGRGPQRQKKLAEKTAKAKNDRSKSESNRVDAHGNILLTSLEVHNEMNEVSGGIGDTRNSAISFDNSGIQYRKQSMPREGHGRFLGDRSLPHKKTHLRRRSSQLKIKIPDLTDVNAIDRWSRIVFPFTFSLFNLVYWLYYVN

[1] = test system: subject with Autism Spectrum Disorder; experiment: Oral zolpidem dosing regimen in a subject with ASD; format: in vivo, human
Description: Thus, classic BZs and zolpidem are likely to have different requirements for high-affinity binding to GABAA receptors (Sancar et al. 2007). […] Studies have shown that the sedative-hypnotic and anticonvulsant activities of zolpidem are due to its action on α1-GABAA receptors and not on α2- or α3-GABAA receptors (Crestani F et al., 2000).
Especially, the relief of the so-called “psychic pain” or “phantom pain” which was by far the most debilitating symptom of ASD with respect to the subject, was profound after the first dose.

α1-GABAA receptors = α1-GABAA receptors (Homo sapiens, UniProt P14867+P18507); details: recombinant receptors; cited from earlier work
α1-GABAA receptors, sequence (P18507 40-475, one chain of several): as the sequence (P18507 40-475, one chain of several) above

α3-GABAA receptors = α3-GABAA receptors (Homo sapiens, UniProt P18507+P34903); details: recombinant receptors; cited from earlier work
α3-GABAA receptors, sequence (P34903 29-492, one chain of several): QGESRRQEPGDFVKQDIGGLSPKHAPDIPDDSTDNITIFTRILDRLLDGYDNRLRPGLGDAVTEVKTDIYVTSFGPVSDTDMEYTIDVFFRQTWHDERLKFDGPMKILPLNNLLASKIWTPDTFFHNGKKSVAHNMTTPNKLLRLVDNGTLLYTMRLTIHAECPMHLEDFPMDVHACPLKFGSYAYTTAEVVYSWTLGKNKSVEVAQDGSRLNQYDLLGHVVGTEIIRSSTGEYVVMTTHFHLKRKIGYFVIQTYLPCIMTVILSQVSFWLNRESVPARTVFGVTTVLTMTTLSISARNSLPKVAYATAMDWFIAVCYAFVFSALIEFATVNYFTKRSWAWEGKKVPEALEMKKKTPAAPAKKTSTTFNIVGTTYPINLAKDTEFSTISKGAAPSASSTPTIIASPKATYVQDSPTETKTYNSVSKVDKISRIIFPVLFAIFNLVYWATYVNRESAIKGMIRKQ
α3-GABAA receptors, sequence (P18507 40-475, one chain of several): as the sequence (P18507 40-475, one chain of several) above

| SMILES | measures of irritability and communications (autistic children) | affinity to α2-GABAA receptors (α2-GABAA receptors) | binding to α5-GABAA receptors (α5-GABAA receptors) | modulation of α1β3 GABAA receptors (α1β3 GABAA receptors) | relief of the so-called psychic pain or phantom pain ([1]; after the first dose, one subject) | attenuation of at least one indicium of an ASD ([1]; oral, at least 30 mg every 3.5 hours around the clock, at least one subject) | duration of symptom-free state while on zolpidem ([1]; oral, at least 30 mg every 3.5 hours around the clock, one subject) | affinity to α1-GABAA receptors (α1-GABAA receptors) | affinity to α3-GABAA receptors (α3-GABAA receptors) |
| --- | --- | --- | --- | --- | --- | --- | --- | --- | --- |
| NC[C@H](CC(=O)O)c1ccc(Cl)cc1 [Arbaclofen] | significant improvements |  |  |  |  |  |  |  |  |
| Cc1ccc(-c2nc3ccc(C)cn3c2CC(=O)N(C)C)cc1 [zolpidem] |  | intermediate affinity | fails to bind | potent stoichiometry-selective modulator | profound | almost complete attenuation; also recorded: immediate and almost complete | symptom-free and leading a normal life for at least five years | high affinity | intermediate affinity |
